Source: US20250243160A1, “INDOLE DERIVATIVES FOR TARGETING AUTOPHAGY” (Automera PTE. LTD, priority 2024, published 2025)

How the values were obtained:
LC3 protein = experiment: LC3 lipidation (LC3-II/LC3-I) assay by Western blot in HeLa cells; format: cell-based; conditions: 24 hours treatment, relative to vehicle control (DMSO)
Method: HeLa cells were seeded in 6-well plates (700,000 cells) and allowed to adhere overnight. Media was replaced one hour before administering either vehicle (DMSO) or test compounds. After 24 hours of treatment, the media was discarded, and cells were rinsed once with ice-cold 1×PBS before detached from plates with ice-cold RIPA Lysis and Extraction Buffer (Thermo Fisher Scientific) which was supplemented with protease and phosphatase inhibitors. The resulting cell suspensions were transferred to pre-chilled microcentrifuge tubes, incubated on ice for 20 min with intermittent mixing and then centrifuged at 12,000 rpm for 20 min at 4° C. The supernatants were then aspirated slowly and transferred into new tubes kept on ice. The protein concentration in the samples was determined using BCA kit (Thermo Fisher Scientific) as per manufacturer's instructions.
For the p62 oligomerization and LC3 lipidation assays, cell lysates were prepared using RIPA buffer supplemented with 2% SDS and benzonase (Sigma). The lysates were then combined with 4× Laemmli protein sample buffer (Bio-Rad), heated at 70° C. for 10 min and subjected to a brief centrifugation of 10-15 seconds.
For p62 oligomerization and LC3 lipidation assays, lysates containing 30 μg of protein and for BRD4 and FKBP12(F36V) degradation assays, lysates containing 20 μg of protein, were loaded slowly into the wells of 4-20% gradient Tris-glycine gels (Bio-Rad). The gels were run at 100V until completion and transferred onto PVDF membranes. Membranes were blocked using 5% milk in TBS-Tween (0.1%) buffer at room temperature for 1 hour. The membranes were incubated with primary antibody in 5% milk-TBST with shaking, overnight at 4° C. The primary antibodies used were: p62 (Novus Biologicals 2C11, H00008878-MO1), LC3A/B (Cell Signalling Technology D3U4C, 12741S), FKBP12 (Abcam ab24373), BRD4 (Cell Signalling Technology E2A7X, 13440S), GAPDH (Cell Signalling Technology D4C6R, 97166S), and β-Actin (Proteintech 66009-1-Ig). Following primary antibody incubation, membranes were washed thrice with TBST 10 min before and after incubation with secondary-HRP conjugated antibody in 5% milk-TBST for 1 hour at room temperature. The secondary antibodies used were: Anti-Mouse IgG HRP Conjugate (Promega W4021B) and Anti-Rabbit IgG HRP Conjugate (Promega W4011). For the p62 oligomerization assay, the total protein levels were assessed using Ponceau staining (Thermo Fisher Scientific) of PVDF membrane as per recommendation by manufacturer's guidelines.
Imaging was acquired using SuperSignal™ West Pico PLUS Chemiluminescent Substrate (Thermo Fisher Scientific) with iBright Invitrogen FL100 imaging system. Band signal intensity, reflective of protein concentrations, were quantified using Invitrogen™ iBright™ Analysis and Image J software.
HeLa cells were treated with compounds for 24 hours to evaluate the effect of these compounds on LC3-II/LC3-I levels, a measure of autophagy activation. The changes in levels of LC3-I, LC3-II and […] (loading control) were assessed by Western blotting, as described in experimental procedures. The fold increase of LC3-II/LC3-I levels induced by compound treatment relative to vehicle control (DMSO) was determined and summarized in Table 9. Specifically, FIGS. 3A-C show Western blot images and their corresponding quantification showing the lipidation levels of LC3 protein (LC3-II/LC3-I) by 24 hours compound treatments at listed concentrations, relative to vehicle control (DMSO) in HeLa cells.

p62 puncta = p62 puncta immunocytochemistry imaging in HeLa cells; format: cell-based; conditions: 24 hours treatment, relative to vehicle control (DMSO)
Method in brief: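 Following 24 h compound or DMSO treatment, HeLa cells were fixed and immunostained for p62 with DAPI counterstain. Puncta counted by imaging on EVOS M7000 (20× objective) or Operetta CLS (63× water objective); reported as fold change versus DMSO.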

SMILES: OCCNCc1cccc2c1ccn2Cc1ccccc1 [Compound 1, 2-(((1-benzyl-1H-indol-4-yl)methyl)amino)ethan-1-ol]
- LC3 lipidation (fold increase of LC3-II/LC3-I levels) (LC3 protein): + (<2-fold change in LC3-II/LC3-I relative to DMSO control)
- p62 puncta (fold change of p62 puncta levels) (p62 puncta): + (<2-fold change in p62 puncta levels relative to DMSO control)

SMILES: OCCNCc1cc(F)cc2c1ccn2Cc1ccc(F)cc1 [Compound 44]
- LC3 lipidation (fold increase of LC3-II/LC3-I levels) (LC3 protein): ++ (>2-fold change in LC3-II/LC3-I relative to DMSO control)
- p62 puncta (fold change of p62 puncta levels) (p62 puncta): ++ (>2-fold change in p62 puncta levels relative to DMSO control)

SMILES: OCCNCc1cc(F)cc2c1ccn2Cc1ccc(Cl)cc1 [Compound 45, 2-(((1-(4-chlorobenzyl)-6-fluoro-1H-indol-4-yl)methyl)amino)ethan-1-ol]
- LC3 lipidation (fold increase of LC3-II/LC3-I levels) (LC3 protein): ++ (>2-fold change in LC3-II/LC3-I relative to DMSO control)
- p62 puncta (fold change of p62 puncta levels) (p62 puncta): ++ (>2-fold change in p62 puncta levels relative to DMSO control)
